Reference: BindingDB's records for doi:10.1021/jm00115a012 (Research Biochemicals, 1991)

How the values were obtained:
[1] = target: T1, D(2) dopamine receptor (Homo sapiens, UniProt P14416); experiment: (§1) Binding affinity against dopamine receptor D2 by using [3H]spiperone as radioligand in caudate-putamen of monkey
[2] = target: D(1A) dopamine receptor; experiment: Binding affinity against dopamine receptor D1 by using [3H]-SCH- 23390 as radioligand in caudate-putamen of monkey
[3] = target: T1, D(2) dopamine receptor; experiment: ChEBML_59152; from the text: as §1

T1 sequence (P14416 whole entry): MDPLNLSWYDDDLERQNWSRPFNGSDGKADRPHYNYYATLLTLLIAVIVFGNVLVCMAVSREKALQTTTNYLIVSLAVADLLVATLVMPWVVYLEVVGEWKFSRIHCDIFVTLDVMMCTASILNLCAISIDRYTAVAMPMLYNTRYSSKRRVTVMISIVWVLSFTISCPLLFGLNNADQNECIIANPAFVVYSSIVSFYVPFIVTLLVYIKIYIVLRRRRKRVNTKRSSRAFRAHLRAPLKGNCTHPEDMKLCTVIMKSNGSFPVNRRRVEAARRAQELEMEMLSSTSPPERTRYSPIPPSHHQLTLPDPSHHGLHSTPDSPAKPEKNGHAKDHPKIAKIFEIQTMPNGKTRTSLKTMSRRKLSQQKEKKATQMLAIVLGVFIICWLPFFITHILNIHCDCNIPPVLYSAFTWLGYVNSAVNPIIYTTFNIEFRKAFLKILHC

SMILES	Ki [1] [nM]	Ki [2] [nM]	Ki [3] [nM]
CCCN(CCc1ccc(NC(=S)Nc2ccc3c(c2)C(=O)OC32c3ccc(O)cc3Oc3cc(O)ccc32)cc1)[C@@H]1CCc2c(O)cccc2C1	110		
CCCN(CCc1ccc(N)cc1)C1CCc2c(O)cccc2C1 (racemic)	6.8	710	
O=C1OC2(c3ccc(O)cc3Oc3cc(O)ccc32)c2ccc(NC(=S)Nc3ccc(C4CNCCc5cc(O)c(O)cc54)cc3)cc21 (stereo not given)		10000	
CCCN(CCc1ccc(C)cc1)[C@@H]1CCc2c(O)cccc2C1	170	4900	
O=C(CCCN1CCC2(CC1)C(=O)N(CCc1ccc(Nc3ccc([N+](=O)[O-])c4n[o+][n-]c34)cc1)CN2c1ccccc1)c1ccc(F)cc1			0.66
CCCN(CCc1ccc(NC(=S)Nc2ccc3c(c2)C(=O)OC32c3ccc(O)cc3Oc3cc(O)ccc32)cc1)[C@H]1CCc2c(O)cccc2C1			4.8
CCCN(CCc1ccc(Nc2ccc([N+](=O)[O-])c3n[o+][n-]c23)cc1)C1CCc2c(O)cccc2C1 (stereo not given)	0.45		
CN1CCc2cc(Br)c(O)cc2C(c2ccc(Nc3ccc([N+](=O)[O-])c4n[o+][n-]c34)cc2)C1 (stereo not given)			710
CN1CCc2cc(Br)c(O)cc2C(c2ccc(NC(=S)Nc3ccc4c(c3)C(=O)OC43c4ccc(O)cc4Oc4cc(O)ccc43)cc2)C1 (stereo not given)			> 5000
CCCN(CCc1ccc(C)cc1)[C@H]1CCc2c(O)cccc2C1	6.7	270	
CCCN(CCc1ccc(NC(=S)Nc2ccc3c(c2)C(=O)OC32c3ccc(O)cc3Oc3cc(O)ccc32)cc1)C1CCc2c(O)cccc2C1 (racemic)			7
CN1CCc2cc(Br)c(O)cc2C(c2ccc(N)cc2)C1 (stereo not given)			1600
